Experiments:
UCP3 protein = UCP3 protein induction in vivo in skeletal muscle after oral dosing (Western blot); details: skeletal muscle tissue from Sprague-Dawley rats
Procedure: UCP3 protein was induced 2- to 3-fold in vivo (skeletal muscle tissue from Sprague-Dawley rats) after oral dosing with compound 1 (Western blot).
1. Isolate rat or mouse skeletal muscle and snap freeze in liquid nitrogen. Grind into a fine powder using mortar and pestle and transfer to an eppendorf tube.
2. Resuspend skeletal muscle in Buffer 1 (0.15 mM MgCl2, 10 mM KCl, 10 mM Tris-HCl, pH 6.7, stored at 4° C.).
3. Place resuspended cells on ice for 2 min. Homogenize using either Potter-Eleuhjem Teflon homogenizer and glass dounce or using hand held homogenizer for 2 min.
4. Add sucrose (1 M) to a final concentration of 0.25 M and spin at 1500 g (4000 rpm in microfuge) for 3 min. to remove nuclei.
5. Take the supernatant fraction and pellet the mitochondria by centrifugation at 10000 rpm for 10 min.
6. Resuspend pellet in 500 μl Buffer 2 (0.15 mM MgCl2, […], 10 mM Tris-HCl, pH 6.7, stored at 2-4° C.).
9. Resuspend final mitochondrial pellet in 2 7 μl Buffer 3 (0.25 M Sucrose, 10 mM Tris-acetate, pH 7.0, 3 μl 10× protease inhibitor cocktail (BMB), stored at 4° C.).
10. Determine protein concentration with BioRad protein assay dye (Bradford Reagent). 1 μl protein in 100 μl 1× Bradford Reagent. OD595 with BSA standard curve (1 μg/μl-50 μg/μl).
For antiUCP3 Westerns use 60 μg protein. Run precast 10% gels until dye front is about 1 cm from bottom of gel. […]

UCP3 = UCP3 RNA induction in rat L6 cells (QPCR); assay type: cell-based
Procedure: Table 1 provides QPCR data (ABI 7700 Sequence Detection System) for exemplary compounds of formula I evaluated for UCP3 RNA induction in L6 cells from rats. The assay is described in Example 14.4, below.
Rat UCP3 (L6 cells) QPCR Protocol
1. (Day1) Plate 300,000 L6 cells per well (24 well plate) in Minimum Essential Medium-Alpha Medium with 2% FBS and Antibiotic/Antimycotic Solution added. Incubate for 2 days and change to fresh medium (Day3). Incubate 1 more day.
2. (Day 4) Add compound at desired concentration. Incubate for 18-20 h. 2 wells per compound. 4-wells of DMSO controls per plate.
3. (Day 5) Prepare RNA from cells: • (1) Aspirate media and lyse cells directly on plate by adding 500 μL of Trizol Reagent (Gibco BRL) to each well and passing the lysate several times through a pipette. Transfer lysate to eppendorf tubes (combining the lysate from identical compound treatments). • (2) Add 200 μL of chloroform to the 1 mL of lysate. Vortex to mix and incubate at room temp. for 2-3 min. Spin samples in a microfuge at 12,000 rpm for 15 min. at 4° C. • (3) Transfer the aqueous phase to a fresh tube. Precipitate the RNA from the aqueous phase by adding 500 μL of isopropanol and mixing well. Incubate at −20° C. for at least 15 min. Pellet the RNA by spinning at 12,000 rpm for 10 min. at 4° C. • (4) Remove the supernatant and wash the RNA pellet with 500 μL of 75% ethanol. Spin at 10,000 rpm for 5 min. at 4° C. • (5) Remove the supernatant and allow pellet to air dry briefly. Dissolve RNA in 15 μL of RNase-free water. Store at −80° C. Electrophorese some RNA to check quality.
4. QPCR (50 μL reactions in 96 well MicroAmp Optical Plate): TaqMan Gold RT-PCR Reagents (PE catalog #N808-0232): OD RNA and dilute to 5 ng/μL in RNase-free water. All samples run in duplicate with UCP3 and m18S probe/primers
Add 40 μL of Reaction Mix to 10 μL of diluted RNA (50 ng total) on QPCR plate PCR Cycling Parameters • 48° C. 30 min. • 95° C. 10 min. • 40 cycles: 95° C. 15 sec. • 58° C. 1.5 min. QPCR Primers/Probes

RXRα = molecular target: T1, RXRα (Homo sapiens, UniProt P19793); experiment: RXRα induction in HEK 293 cells (transient transfection, luciferase reporter); assay type: cell-based
T1 construct: expressed in transfected cells; host or cells: HEK 293 cells
T1 sequence (P19793 1-462): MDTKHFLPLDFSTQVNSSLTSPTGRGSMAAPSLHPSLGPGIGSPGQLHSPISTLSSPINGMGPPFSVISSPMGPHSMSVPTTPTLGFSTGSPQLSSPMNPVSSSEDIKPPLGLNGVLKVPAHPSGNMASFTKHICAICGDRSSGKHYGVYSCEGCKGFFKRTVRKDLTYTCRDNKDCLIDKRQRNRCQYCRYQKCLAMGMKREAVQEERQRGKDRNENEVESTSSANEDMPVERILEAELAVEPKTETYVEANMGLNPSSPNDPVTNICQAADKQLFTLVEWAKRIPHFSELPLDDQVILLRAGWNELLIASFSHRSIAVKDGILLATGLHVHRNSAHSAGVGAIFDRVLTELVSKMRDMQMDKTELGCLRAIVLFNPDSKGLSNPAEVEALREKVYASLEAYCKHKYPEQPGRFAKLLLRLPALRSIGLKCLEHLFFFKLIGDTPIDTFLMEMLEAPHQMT
Procedure: Table 2 provides QPCR data (ABI 7700 Sequence Detection System) for exemplary compounds of formula I evaluated for RXR induction in HEK 293 cells, following a general protocol, briefly described below. See Naeger et al. (1999) J. Biol. Chem. 274:1875-1878 for a related cell-based assay.
DNA constructs containing a luciferase reporter plasmid and another plasmid which contained an activation domain (e.g., RXRα) were transiently transfected into HEK 293 cells. The cells were treated with the compounds and luciferase activity was measured using a luminometer. Fold induction was determined by comparing the luciferase activity of treated cells to the activity of untreated cells.

melting point: 226.7 to 227.5 °C
RXRα RNA induction at 3 μM (RXRα; 3 μM): + (+ denotes 5-fold or less induction)
RXRα RNA induction at 10 μM (RXRα; 10 μM): + (+ denotes 5-fold or less induction)
Compound: Cc1c(C(=O)O)cnn1-c1nc(-c2cccc(C(F)(F)F)c2)cs1 [Compound 1, 1-[4-(3-(Trifluoromethyl)phenyl)thiazol-2-yl]-5-methylpyrazole-4-carboxylic acid]
UCP3 protein induction (UCP3 protein): 2- to 3 fold
fold induction at 10 µM (UCP3): > 10
RXRα RNA induction at 1 μM (RXRα; 1 μM): ++ (++ denotes greater than 5-fold induction)

Source: patent publication US7358267B2, “Bis-aryl thiazole derivatives” (Amgen Inc., priority 2001, dated 2008)
